Measurements taken from the NIST ThermoML archive (doi:10.1016/j.jct.2015.02.017).
± gives the expanded uncertainty stated by the source.

Test: mn = molality of the nth substance listed, in mol/kg
Conditions: 298.15 K, 101 kPa, Liquid; for viscosity: Capillary tube (Ostwald / Ubbelohde) method; for mass density: Vibrating tube method

C[n+]1ccn(CCCCCn2cc[n+](C)c2)c1.[Br-].[Br-] + O
Conditions	mass density [kg/m3]	viscosity [mPa·s]
m1 = 0.05	1003.25 ± 0.088	0.917 ± 0.019
m1 = 0.0825	1007.17 ± 0.09	–
m1 = 0.0967	–	0.943 ± 0.02
m1 = 0.1108	1010.53 ± 0.091	0.949 ± 0.02
m1 = 0.1389	–	0.966 ± 0.02
m1 = 0.1522	1015.32 ± 0.093	–
m1 = 0.1621	–	0.979 ± 0.02
m1 = 0.1929	–	0.996 ± 0.021
m1 = 0.2152	1022.44 ± 0.099	–

C[n+]1ccn(CCCCn2cc[n+](C)c2)c1.[Br-].[Br-] + O
Conditions	mass density [kg/m3]	viscosity [mPa·s]
m1 = 0.0993	1009.54 ± 0.091	0.94 ± 0.02
m1 = 0.1398	1014.42 ± 0.093	0.958 ± 0.02
m1 = 0.1597	1016.78 ± 0.095	0.967 ± 0.02
m1 = 0.1794	–	0.977 ± 0.02
m1 = 0.194	1020.81 ± 0.098	0.984 ± 0.02
m1 = 0.2187	1023.65 ± 0.099	0.996 ± 0.021
m1 = 0.2485	1027.04 ± 0.1	1.008 ± 0.021

C[n+]1ccn(CCCCCCn2cc[n+](C)c2)c1.[Br-].[Br-] + O
Conditions	mass density [kg/m3]	viscosity [mPa·s]
m1 = 0.0407	–	0.917 ± 0.019
m1 = 0.0814	1006.92 ± 0.089	–
m1 = 0.0989	–	0.953 ± 0.02
m1 = 0.1	1009.1 ± 0.09	–
m1 = 0.1196	–	0.966 ± 0.02
m1 = 0.1206	1011.5 ± 0.09	–
m1 = 0.1403	1013.75 ± 0.092	0.98 ± 0.02
m1 = 0.1604	–	0.993 ± 0.021
m1 = 0.1772	1017.94 ± 0.095	–
m1 = 0.2001	–	1.02 ± 0.021

O=C[C@H](O)[C@@H](O)[C@H](O)[C@H](O)CO [D-glucose] + O
Conditions	mass density [kg/m3]	viscosity [mPa·s]
m1 = 0.2	1010.41 ± 0.14	0.975 ± 0.02
m1 = 0.4	1023.12 ± 0.14	1.068 ± 0.022
m1 = 0.8	1046.88 ± 0.15	1.28 ± 0.027
m1 = 1.2	1068.58 ± 0.16	1.532 ± 0.032
m1 = 1.6	1088.48 ± 0.16	1.83 ± 0.038
